From the NIST ThermoML archive (doi:10.1016/j.fluid.2013.11.008)
Numbers after ± are expanded uncertainties.

How the values were obtained:
[1] = for mass density: 298.15 K, 101.33 kPa, Liquid, Pycnometric method
[2] = Molar enthalpy of transition or fusion; settings: Crystal; DSC

Row | Compound | mass density [1] [kg/m3] | Molar enthalpy of transition or fusion [2] [kcal/mol] | Normal melting temperature ([1]; Crystal, DTA) [°C]
1 | CCCCO [butan-1-ol] | 805.5 ± 40 |  | 
2 | CO [methanol] | 785.9 ± 40 |  | 
3 | C[C@]12CCC(=O)C=C1CC[C@@H]1[C@@H]2CC[C@]2(C)C(=O)CC[C@@H]12 [androst-4-ene-3,17-dione] |  | 6.14 ± 0.382 | 171.39 ± 0.7
4 | CCO [ethanol] | 786.4 ± 40 |  | 
5 | CC(C)O [propan-2-ol] | 782.7 ± 40 |  | 
